Experimental data from the supplement of paper PMC10307832.

Assays:
Assay in all cases: relative viability (nuclei count vs DMSO), 5 days (fraction); higher = more cells survive
Bortezomib + Trametinib = compound: CC(C)C[C@H](NC(=O)[C@H](Cc1ccccc1)NC(=O)c1cnccn1)B(O)O [Bortezomib] + CC(=O)Nc1cccc(-n2c(=O)n(C3CC3)c(=O)c3c(Nc4ccc(I)cc4F)n(C)c(=O)c(C)c32)c1 [Trametinib] (partner 0.02 µM)
In short: (§1)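 Values are medians from duplicate plates. Each reflects relative viability, defined as the nuclei count of treated wells over that of vehicle wells. Lung cancer cell lines in 1536-well plates were pin-tool dosed one day after seeding with one drug alone or with a fixed anchor-drug dose plus five library-drug doses (not always all listed) in √10 steps, then fixed, stained and imaged at 4× after 5 days.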

[1] = compound: CC1=CC(=NN1)NC2=CC(=NC(=N2)/C=C/C3=CC=CC=C3)N4CCN(CC4)C + Cc1cc(Nc2cc(N3CCN(C)CC3)nc(Sc3ccc(NC(=O)C4CC4)cc3)n2)n[nH]1 [Tozasertib] (partner 0.1 µM)
In short: as §1

Obatoclax + OSI-027 = compound: COC1=CC(c2cc3ccccc3[nH]2)=N/C1=C\c1[nH]c(C)cc1C [Obatoclax] + COc1cccc2cc(-c3nc([C@H]4CC[C@H](C(=O)O)CC4)n4ncnc(N)c34)[nH]c12 [OSI-027] (partner 0.5 µM)
In short: as §1

Obatoclax + Vorinostat = compound: COC1=CC(c2cc3ccccc3[nH]2)=N/C1=C\c1[nH]c(C)cc1C [Obatoclax] + O=C(CCCCCCC(=O)Nc1ccccc1)NO [Vorinostat] (partner 1 µM)
In short: as §1

Cell Line | relative viability (Bortezomib + Trametinib; first compound 0.0002 µM) | relative viability (Bortezomib + Trametinib; first compound 0.000632 µM) | relative viability (Bortezomib + Trametinib; first compound 0.002 µM) | relative viability (Bortezomib + Trametinib; first compound 0.006325 µM) | relative viability (Bortezomib + Trametinib; first compound 0.02 µM) | relative viability ([1]; first compound 0.08 µM) | relative viability ([1]; first compound 0.253 µM) | relative viability ([1]; first compound 0.8 µM) | relative viability ([1]; first compound 2.53 µM) | relative viability ([1]; first compound 8 µM) | relative viability (Obatoclax + OSI-027; first compound 0.01 µM) | relative viability (Obatoclax + OSI-027; first compound 0.03162 µM) | relative viability (Obatoclax + OSI-027; first compound 0.1 µM) | relative viability (Obatoclax + OSI-027; first compound 0.3162 µM) | relative viability (Obatoclax + OSI-027; first compound 1 µM) | relative viability (Obatoclax + Vorinostat; first compound 0.01 µM) | relative viability (Obatoclax + Vorinostat; first compound 0.03162 µM) | relative viability (Obatoclax + Vorinostat; first compound 0.1 µM) | relative viability (Obatoclax + Vorinostat; first compound 0.3162 µM) | relative viability (Obatoclax + Vorinostat; first compound 1 µM)
NCI-H460 | 0.126 | 0.157 | 0.202 | 0.0768 | 0.0189 | 0.371 | 0.394 | 0.313 | 0.0338 | 0.0166 | 0.697 | 0.703 | 0.635 | 0.0709 | 0.0443 | 0.706 | 0.717 | 0.692 | 0.103 | 0.0463
NCI-H2342 | 0.869 | 0.965 | 0.815 | 0.924 | 0.386 | 0.527 | 0.503 | 0.438 | 0.376 | 0.324 | 0.654 | 0.615 | 0.728 | 0.507 | 0.618 | 0.767 | 0.717 | 0.859 | 0.874 | 0.958
NCI-H596 | 0.835 | 0.773 | 0.568 | 0.208 | 0.168 | 0.783 | 1.01 | 0.896 | 0.508 | 0.244 | 0.837 | 0.602 | 0.65 | 0.504 | 0.425 | 0.555 | 0.467 | 0.543 | 0.585 | 0.296
HARA | 0.642 | 0.592 | 0.896 | 0.0979 | 0.189 | 0.111 | 0.108 | 0.11 | 0.0787 | 0.0585 | 0.456 | 0.555 | 0.444 | 0.438 | 0.168 | 0.553 | 0.392 | 0.566 | 0.441 | 0.605
NCI-H1793 | 0.445 |  | 0.457 | 0.414 | 0.132 | 0.298 | 0.537 | 0.207 | 0.123 | 0.111 | 0.293 | 0.286 | 0.248 | 0.275 | 0.298 | 0.725 | 0.71 | 0.714 | 0.711 | 0.722
SW 900 | 0.587 | 0.578 | 0.167 | 0.155 | 0.145 | 0.594 | 0.667 | 0.559 | 0.326 | 0.174 | 0.54 | 0.512 | 0.709 | 0.383 | 0.258 | 0.493 | 0.489 | 0.509 | 0.389 | 0.372
NCI-H2126 | 0.548 | 0.599 | 0.54 | 0.496 | 0.202 | 0.844 | 0.907 | 0.837 | 0.501 | 0.236 | 0.766 | 0.546 | 0.878 | 0.651 | 0.736 | 0.748 | 0.688 | 0.993 | 0.807 | 0.792
HCC-827 | 0.515 | 0.555 | 0.417 | 0.218 | 0.141 | 0.404 | 0.375 | 0.422 | 0.355 | 0.236 | 0.846 | 0.733 | 0.806 | 0.675 | 0.778 | 0.879 | 0.726 | 0.711 | 0.25 | 0.82
BEN | 0.856 | 0.953 | 0.87 | 0.829 | 0.29 | 0.492 | 0.533 | 0.451 | 0.364 | 0.38 | 0.28 | 0.297 |  | 0.283 | 0.32 | 0.594 | 0.486 | 0.521 | 0.556 | 0.621
